# ChEMBL document CHEMBL1201862, “PubChem BioAssay data set” (2004)
# Activity calls are given as the source filed them.
# Key:
# [1] = target: Glucose-6-phosphate 1-dehydrogenase (Homo sapiens, UniProt P11413); assay: human G6PD enzyme inhibitors, dose response, selectivity assay for P. falciparum G6PD inhibitor project, biochemical, fluorescence (AID 504792); type: functional
# [2] = target: T1, Zinc finger protein mex-5 (Caenorhabditis elegans, UniProt Q9XUB2); assay: MEX-5/TCR-2 RNA interaction inhibitors, dose response, biochemical, C. elegans, fluorescence polarization (AID 1960)
# T1 sequence (Q9XUB2 whole entry): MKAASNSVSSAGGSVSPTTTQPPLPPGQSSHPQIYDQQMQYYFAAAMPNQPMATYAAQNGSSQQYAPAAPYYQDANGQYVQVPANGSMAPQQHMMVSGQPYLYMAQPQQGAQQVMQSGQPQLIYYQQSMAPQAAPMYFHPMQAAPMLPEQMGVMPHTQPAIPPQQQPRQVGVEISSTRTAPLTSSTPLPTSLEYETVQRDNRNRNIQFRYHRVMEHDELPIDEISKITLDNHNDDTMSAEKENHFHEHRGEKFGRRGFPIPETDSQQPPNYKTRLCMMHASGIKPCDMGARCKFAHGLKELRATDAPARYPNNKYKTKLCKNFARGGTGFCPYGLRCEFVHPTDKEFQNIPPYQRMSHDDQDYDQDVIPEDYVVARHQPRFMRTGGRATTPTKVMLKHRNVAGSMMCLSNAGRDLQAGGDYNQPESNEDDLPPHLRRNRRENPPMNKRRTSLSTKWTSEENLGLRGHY
# [3] = target: T2, Heat shock factor protein 1 (Mus musculus, UniProt P38532); assay: HSF1 potentiators in luciferase reporter cells, confirmation, cell-based, NIH3T3, luminescence, dose retest (AID 435004); type: functional;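 note: stress induced by proteasome inhibitor MG132 added 30 min after compound; luciferase reporter driven by HSF1 response element in NIH3T3 cells; actives raise luminescence as potentiators of the MG132 stress response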
# T2 sequence (P38532 whole entry): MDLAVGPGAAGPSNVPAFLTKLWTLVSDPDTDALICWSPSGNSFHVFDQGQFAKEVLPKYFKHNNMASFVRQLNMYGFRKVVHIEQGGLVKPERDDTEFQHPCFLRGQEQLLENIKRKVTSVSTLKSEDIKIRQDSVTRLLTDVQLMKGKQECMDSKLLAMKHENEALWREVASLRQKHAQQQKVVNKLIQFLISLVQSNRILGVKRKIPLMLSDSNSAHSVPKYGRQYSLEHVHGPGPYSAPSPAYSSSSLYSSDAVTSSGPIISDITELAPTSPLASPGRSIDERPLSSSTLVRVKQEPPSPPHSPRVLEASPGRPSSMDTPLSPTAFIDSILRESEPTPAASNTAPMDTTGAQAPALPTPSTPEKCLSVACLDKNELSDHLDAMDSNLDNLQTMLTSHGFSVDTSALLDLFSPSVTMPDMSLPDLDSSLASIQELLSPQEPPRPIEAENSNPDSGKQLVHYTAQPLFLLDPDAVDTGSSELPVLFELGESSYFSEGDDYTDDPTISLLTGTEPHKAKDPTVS
# [4] = target: T3, RNA-binding protein pos-1 (Caenorhabditis elegans, UniProt G5EF15); assay: inhibitors of POS-1/mex-3 RNA binding, dose response, biochemical, fluorescence polarization (AID 1964);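 note: purified POS-1 fused to maltose binding protein made in E. coli; potency of compounds blocking POS-1 binding to fluorescent RNA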
# T3 sequence (G5EF15 whole entry): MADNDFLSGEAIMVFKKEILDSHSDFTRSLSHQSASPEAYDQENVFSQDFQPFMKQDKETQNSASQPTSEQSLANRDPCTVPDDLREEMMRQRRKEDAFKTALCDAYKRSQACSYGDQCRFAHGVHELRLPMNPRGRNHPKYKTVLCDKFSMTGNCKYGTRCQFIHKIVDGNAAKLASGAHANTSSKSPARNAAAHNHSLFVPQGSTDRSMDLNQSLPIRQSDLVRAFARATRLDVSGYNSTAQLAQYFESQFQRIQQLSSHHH
# Cysteine protease ATG4B = target: T4, Cysteine protease ATG4B (Homo sapiens, UniProt Q9Y4P1); type: functional;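 note: Fluorescence-based dose-response confirmation assay measuring inhibition of ATG4B activity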
# T4 sequence (Q9Y4P1 whole entry): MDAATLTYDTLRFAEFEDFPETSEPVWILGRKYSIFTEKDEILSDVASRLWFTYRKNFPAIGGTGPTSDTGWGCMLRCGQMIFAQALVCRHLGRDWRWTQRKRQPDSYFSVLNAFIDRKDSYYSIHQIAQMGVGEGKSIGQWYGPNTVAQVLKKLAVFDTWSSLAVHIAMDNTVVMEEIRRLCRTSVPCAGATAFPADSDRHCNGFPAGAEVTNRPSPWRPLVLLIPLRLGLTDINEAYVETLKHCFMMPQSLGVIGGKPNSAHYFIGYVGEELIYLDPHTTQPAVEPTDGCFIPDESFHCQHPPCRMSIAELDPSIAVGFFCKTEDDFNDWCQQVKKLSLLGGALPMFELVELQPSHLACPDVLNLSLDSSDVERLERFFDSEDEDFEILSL
# Phospholipase A2 = Phospholipase A2 (Homo sapiens, UniProt P04054); type: functional;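 note: confirmatory dose-response counterscreen on phospholipase A2, testing hits that came from an ultra-high-throughput screen for ATG4B inhibitors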
# Chain of Phospholipase A2 (P04054 whole entry): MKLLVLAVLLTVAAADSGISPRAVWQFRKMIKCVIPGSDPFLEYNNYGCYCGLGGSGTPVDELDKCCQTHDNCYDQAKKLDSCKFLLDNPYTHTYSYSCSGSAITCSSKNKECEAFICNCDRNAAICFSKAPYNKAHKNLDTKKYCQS
# [5] = cytotoxicity in MIN6 insulinoma cells, dose response, cytotoxicity control, cell-based, mouse insulinoma (AID 2122); type: functional;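 note: confirmatory high-throughput counterscreen run to flag cytotoxic compounds; mouse MIN-6 beta cells carrying an insulin promoter eGFP reporter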
# [6] = insulin promoter down-regulators in MIN6 cells, imaging, high-content screening, mouse beta cells (AID 1628); type: functional
# [7] = control 3'UTR Renilla luciferase suppression, dose response, counter-screen for Shn3 inhibitor project, cell-based, Clone20-Shn3RL, cherry-picked (AID 624133); type: functional
# [8] = HepG2 cell cytotoxicity, dose response, cytotoxicity control for Shn3 inhibitor project, CellTiter-Glo, cherry-picked (AID 624134); type: functional, cell-based
# [9] = Shn3 3'UTR reporter inhibitors, dose response, cell-based, Clone20 osteoblasts, firefly luciferase, cherry-picked (AID 624132); type: functional;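 note: firefly luciferase luminescence from reporter carrying the Shn3 3'UTR in osteoblasts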
# HEK293 [10] = assay: inhibitors of LMP1-driven NF-kB reporter, dose response, cell-based, HEK293, luciferase, cherry-pick (AID 588343); type: functional; details: Homo sapiens
# BJ [11] = assay: cytotoxicity toward BJ-TERT-LT-ST fibroblasts, dose response, cell-based, RAS-independent, luminescence (AID 1935); type: functional; details: Homo sapiens;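 note: BJ fibroblasts immortalized with TERT plus LT and ST oncogenes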
# HEK293 [12] = assay: cells; details: Homo sapiens
# HEK293 [13] = assay: cells; type: functional, cell-based; details: Homo sapiens
# [14] = cytotoxicity toward DRD oncogenic fibroblasts, dose response, cell-based, non-viral oncogenic, luminescence (AID 1934); type: functional; details: Homo sapiens
# HEK293 [15] = assay: cells; type: functional, cell-based; details: Homo sapiens; remark: listed apart in the source
# BJ [16] = assay: cytotoxicity toward BJ-TERT fibroblasts, dose response, cell-based, RAS-independent, luminescence (AID 1933); type: functional; details: Homo sapiens
# BJ [17] = assay: cells; type: functional, cell-based; details: Homo sapiens
# [18] = target: T5, Nucleotide-binding oligomerization domain-containing protein 1 (Homo sapiens, UniProt Q9Y239); assay: NOD1 signaling inhibitors, SAR follow-up, revised (AID 2333); type: functional
# T5 sequence (Q9Y239 whole entry): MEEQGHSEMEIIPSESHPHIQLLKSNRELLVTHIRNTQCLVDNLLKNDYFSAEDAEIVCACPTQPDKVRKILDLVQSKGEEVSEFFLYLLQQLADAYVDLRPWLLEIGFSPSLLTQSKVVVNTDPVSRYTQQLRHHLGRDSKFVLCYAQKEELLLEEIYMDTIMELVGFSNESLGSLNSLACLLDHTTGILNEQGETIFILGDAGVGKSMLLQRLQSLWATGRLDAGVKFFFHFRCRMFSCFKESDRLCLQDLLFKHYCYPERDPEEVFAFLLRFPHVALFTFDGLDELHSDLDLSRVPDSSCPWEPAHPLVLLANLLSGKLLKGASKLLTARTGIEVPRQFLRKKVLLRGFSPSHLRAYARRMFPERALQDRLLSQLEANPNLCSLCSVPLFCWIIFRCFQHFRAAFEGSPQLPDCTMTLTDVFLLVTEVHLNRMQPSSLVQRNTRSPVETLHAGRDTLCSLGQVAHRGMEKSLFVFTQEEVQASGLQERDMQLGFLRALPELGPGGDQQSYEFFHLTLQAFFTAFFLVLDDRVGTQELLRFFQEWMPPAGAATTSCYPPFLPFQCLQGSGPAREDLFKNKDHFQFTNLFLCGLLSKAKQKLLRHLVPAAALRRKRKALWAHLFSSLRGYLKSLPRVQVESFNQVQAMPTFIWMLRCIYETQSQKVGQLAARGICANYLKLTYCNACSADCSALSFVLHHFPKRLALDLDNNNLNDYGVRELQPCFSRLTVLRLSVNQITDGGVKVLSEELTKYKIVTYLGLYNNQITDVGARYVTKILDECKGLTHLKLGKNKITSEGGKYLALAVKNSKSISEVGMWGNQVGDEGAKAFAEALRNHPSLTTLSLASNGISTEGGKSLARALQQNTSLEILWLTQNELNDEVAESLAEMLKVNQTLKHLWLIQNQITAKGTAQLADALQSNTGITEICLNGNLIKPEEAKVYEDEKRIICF
# Tumor necrosis factor = Tumor necrosis factor (Homo sapiens, UniProt P01375); assay: TNFa-triggered NF-kB activation inhibitors, SAR follow-up, cell-based, revised (AID 2337); type: functional
# Chain of Tumor necrosis factor (P01375 whole entry): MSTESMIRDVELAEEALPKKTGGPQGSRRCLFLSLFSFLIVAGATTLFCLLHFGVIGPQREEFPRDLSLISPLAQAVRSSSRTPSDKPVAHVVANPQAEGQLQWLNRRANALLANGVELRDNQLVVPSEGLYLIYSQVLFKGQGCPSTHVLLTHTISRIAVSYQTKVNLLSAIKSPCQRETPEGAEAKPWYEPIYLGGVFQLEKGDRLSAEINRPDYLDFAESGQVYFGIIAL
# HEK293 [19] = assay: NOD2 signaling inhibitors in MDP-stimulated cells, cell-based, uHTS, luminescence (AID 2001); type: functional; details: Homo sapiens
# BJ [20] = assay: cytotoxicity toward Ras-transformed BJeLR fibroblasts, dose response, cell-based, alamar blue fluorescence, cherrypicked samples (AID 2631); type: functional; details: Homo sapiens;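 note: confirmatory dose-response assay in RAS-dependent BJ fibroblasts engineered with TERT, LT and ST, with cytotoxicity read by fluorescence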
# Prothrombin = Prothrombin (Homo sapiens, UniProt P00734); assay: Thrombin 1536 HTS Dose Response Confirmation. [Related pubchem assays: 1046 (Thrombin 1536 HTS; hits were confirmed in this assay)]; type: functional
# HEK293 [21] = assay: NOD1 signaling inhibitors, primary screen, cell-based, luminescence, uHTS (AID 1578); type: functional; details: Homo sapiens
# [22] = target: Nucleotide-binding oligomerization domain-containing protein 2 (Homo sapiens, UniProt Q9HC29); assay: NOD2 signaling inhibitors, cell-based, luminescence, uHTS, HEK293 (AID 1566); type: functional
# Chain of Nucleotide-binding oligomerization domain-containing protein 2 (Q9HC29 whole entry, the tested form may be a part): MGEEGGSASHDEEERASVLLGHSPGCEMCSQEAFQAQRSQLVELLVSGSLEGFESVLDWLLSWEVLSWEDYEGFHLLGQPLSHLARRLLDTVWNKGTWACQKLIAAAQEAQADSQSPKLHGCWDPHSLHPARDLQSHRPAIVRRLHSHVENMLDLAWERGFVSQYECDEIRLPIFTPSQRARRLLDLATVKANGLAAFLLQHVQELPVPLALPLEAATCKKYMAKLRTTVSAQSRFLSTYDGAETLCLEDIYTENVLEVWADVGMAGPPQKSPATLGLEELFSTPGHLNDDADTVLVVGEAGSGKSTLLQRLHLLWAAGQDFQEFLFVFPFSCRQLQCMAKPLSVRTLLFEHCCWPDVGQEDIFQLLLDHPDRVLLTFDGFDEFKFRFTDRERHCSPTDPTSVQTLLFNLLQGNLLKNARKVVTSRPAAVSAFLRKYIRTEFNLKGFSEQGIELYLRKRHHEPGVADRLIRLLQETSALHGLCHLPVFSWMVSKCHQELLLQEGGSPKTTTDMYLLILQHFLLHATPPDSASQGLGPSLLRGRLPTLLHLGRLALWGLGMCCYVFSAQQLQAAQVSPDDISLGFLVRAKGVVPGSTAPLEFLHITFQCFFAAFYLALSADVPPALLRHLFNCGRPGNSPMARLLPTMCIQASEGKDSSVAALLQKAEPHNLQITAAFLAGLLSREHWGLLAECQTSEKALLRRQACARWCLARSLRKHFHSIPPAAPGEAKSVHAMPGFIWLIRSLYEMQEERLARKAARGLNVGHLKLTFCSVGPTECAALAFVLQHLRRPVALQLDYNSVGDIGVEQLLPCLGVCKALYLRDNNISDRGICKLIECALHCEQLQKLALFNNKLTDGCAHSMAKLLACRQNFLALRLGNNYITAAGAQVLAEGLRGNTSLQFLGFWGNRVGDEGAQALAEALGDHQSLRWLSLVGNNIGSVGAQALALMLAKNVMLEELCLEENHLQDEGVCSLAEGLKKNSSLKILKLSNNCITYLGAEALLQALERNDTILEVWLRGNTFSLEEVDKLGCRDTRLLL
# HEK293 [23] = assay: cells; type: functional, cell-based; details: Homo sapiens; remark: listed apart in the source
# Chain of Glucose-6-phosphate 1-dehydrogenase (P11413 whole entry): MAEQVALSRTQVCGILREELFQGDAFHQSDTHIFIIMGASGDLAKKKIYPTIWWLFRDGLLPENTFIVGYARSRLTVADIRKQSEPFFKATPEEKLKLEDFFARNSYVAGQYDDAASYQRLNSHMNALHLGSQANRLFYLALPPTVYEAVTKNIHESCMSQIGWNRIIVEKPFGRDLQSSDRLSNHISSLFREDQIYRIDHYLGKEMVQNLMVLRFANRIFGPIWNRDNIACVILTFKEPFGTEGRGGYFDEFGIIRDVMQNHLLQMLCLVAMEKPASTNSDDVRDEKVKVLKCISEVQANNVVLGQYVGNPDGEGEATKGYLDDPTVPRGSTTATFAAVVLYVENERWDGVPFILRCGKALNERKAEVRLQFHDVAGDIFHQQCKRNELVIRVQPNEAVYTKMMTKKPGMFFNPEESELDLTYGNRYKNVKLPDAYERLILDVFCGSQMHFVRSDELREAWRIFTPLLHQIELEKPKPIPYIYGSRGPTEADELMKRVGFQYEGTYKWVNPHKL
smiles,measurement,setting,value
Oc1ccc(C2C[C@H]3CC[C@@H]2C3)cc1O (stereo not given in full),IC50,[1],> 80 µM (inactive)
same,EC50,[2],20.6 µM (inconclusive)
same,EC50,[3],20 µM (active)
same,EC50,[4],> 300 µM (not active)
COC(=O)CSc1nc2cc(Cl)ccc2c(=O)n1C1CCCC1,IC50,Cysteine protease ATG4B,5.43 µM (active)
same,IC50,Phospholipase A2,11.4 µM (active)
O=C(CN(C(=O)c1ccc(Cl)cc1)C1CCCCC1)Nc1ccc(Cl)c([N+](=O)[O-])c1,IC50,[5],1.85 µM (active)
same,IC50,[6],3.45 µM (active)
same,AC50,[7],20.6 µM (active)
same,AC50,[8],52.6 µM (active)
same,AC50,[9],8.11 µM (active)
Cc1cccc(NC(=S)N=Nc2c(O)n(C)c3ccc(S(=O)(=O)N4CCOCC4)cc23)c1,IC50,[5],5.04 µM (active)
same,IC50,[6],6.3 µM (active)
same,AC50,HEK293 [10],0.985 µM (active)
Cc1cccc(Nc2nc(N)nc(CCl)n2)c1,EC50,BJ [11],> 75 µM (inconclusive)
same,IC50,HEK293 [12],> 20 µM (inactive)
same,IC50,HEK293 [13],9.2 µM (active)
same,EC50,[14],3.92 µM (active)
same,IC50,HEK293 [15],> 20 µM (inactive)
same,EC50,BJ [16],6.83 µM (inconclusive)
same,EC50,BJ [17],7.74 µM (active)
same,IC50,[18],4.54 µM (active)
same,IC50,Tumor necrosis factor,> 20 µM (inactive)
same,IC50,HEK293 [19],10.2 µM (inactive)
same,EC50,BJ [20],24.4 µM (active)
same,IC50,Prothrombin,> 50 µM (not active)
same,EC50,HEK293 [21],8.71 µM (active)
Cc1ccccc1C(=O)N1CCN(c2ccc(NC(=O)c3ccc4c(c3)OCCO4)cc2)CC1,EC50,[22],10.2 µM (active)
same,IC50,HEK293 [12],> 20 µM (inactive)
same,IC50,HEK293 [13],4.55 µM (active)
same,IC50,HEK293 [15],9.82 µM (active)
same,AC50,[8],4.24 µM (active)
same,IC50,HEK293 [23],> 20 µM (inactive)
same,AC50,[9],2.17 µM (active)
same,IC50,[18],3.69 µM (active)
same,IC50,Tumor necrosis factor,4.73 µM (active)
same,IC50,HEK293 [19],3.6 µM (active)
same,EC50,HEK293 [21],4.61 µM (active)
O=C(CNCCc1ccc(Cl)cc1Cl)NCc1ccco1,IC50,Cysteine protease ATG4B,18.7 µM (active)
same,IC50,Phospholipase A2,12.3 µM (active)
